Key:
[1] = system: P-gp/BCRP; assay: P-gp/BCRP efflux substrate status; assay type: in vitro ADME; conditions: belvarafenib, own experiments
[2] = system: solid tumors harboring mutations in BRAF, KRAS, or NRAS genes; assay: open-label Phase Ib dose-expansion study; assay type: in vivo, human
Procedure: In another open-label, Phase Ib, dose-expansion study, belvarafenib was evaluated at a dose of 450 mg BID in patients with solid tumors harboring mutations in BRAF, KRAS, or NRAS genes. Efficacy was analyzed for 59 of 63 subjects who had at least 1 dose of belvarafenib after enrollment and had at least 1 post-baseline tumor assessment. BORR was 11.86% (7/59 subjects), ORR was 6.78% (4/59 subjects) with PR as confirmed best overall response (3 subjects with melanoma and a subject with CRC). […] Fifty (84.75%) of 59 subjects developed an event (progression of disease or death), all of which were reported as PD except 1 death case. In addition, median progression-free survival (PFS) was 7.83 weeks and the 95% confidence interval for the median was [7.26 weeks, 8.26 weeks]. Median duration of response (DOR) of a total response in this study was 15.66 weeks from 7 responders.

[3] = Brain to plasma ratio of belvarafenib, summary over mice and rats; assay type: in vivo; conditions: for Kp: mouse, rat, brain/plasma
Procedure: Pharmacokinetic parameters of belvarafenib were calculated from plasma and brain concentration-time data by a non-compartmental method using Phoenix™ WinNonlin 8.1 (Certara, USA). The peak plasma and brain concentration (Cmax) and the corresponding time (Tmax) were directly obtained from the raw data. The area under the plasma curve (AUClast) was obtained by linear-log trapezoidal summation. Other PK parameters such as AUC from dosing time extrapolated to infinity (AUCinf), half-life (t1/2) and mean residence time (MTRlast) were calculated using WinNonlin. The plasma and brain concentrations of belvarafenib were presented as MEAN±S.D. The brain to plasma (B/P) ratio of Belvarafenib was calculated by dividing AUClast in the brain by AUClast in the plasma.
The brain to plasma ratio is expressed in terms of B/P (nonclinical) defined as the percentage of brain exposure relative to plasma. The B/P for belvarafenib was determined experimentally according to the present disclosure and wherein the B/P of 93% is for mice and the B/P of 138% is for rats. The B/P for DAY101 is for mice was taken from Gampa, et al., “Brain Distribution and Active Efflux of Three pan-RAF Inhibitors: Considerations in the Treatment of Melanoma Brain Metastases”, J Pharmacol Exp Ther 368:446-461, March 2019. The B/P for dabrafenib is for mice and was taken from Mittapalli, et al., “Mechanisms Limiting Distribution of the Threonine-Protein Kinase B-RaFV600E Inhibitor Dabrafenib to the Brain: Implications for the Treatment of Melanoma Brain Metastases”, J Pharmacol Exp Ther 344:[…], 2013. The B/P for vemurafenib is for mice and was taken from Mittapalli, et al., “Impact of P-glycoprotein (ABCB1) and breast cancer resistance protein (ABCG2) on the brain distribution of a novel BRAF inhibitor: vemurafenib (PLX4032)”, J Pharmacol Exp Ther 342:33-40, 2013. […]

**Q.** Which results are given for `Cc1ccc2c(Nc3cccc(Cl)c3F)nccc2c1NC(=O)c1csc2c(N)ncnc12` [Belvarafenib, 4-amino-N-(1-((3-chloro-2-fluorophenyl)amino)-6-methylisoquinolin-5-yl)thieno[3,2-d]pyrimidine-7-carboxamide]?
**A.** P-gp/BCRP efflux substrate? [1]: is not a P-gp and a BCRP efflux substrate and No; Disease control ([2]; 450 mg BID): 35.59%; ORR ([2]; 450 mg BID): 6.78%; median progression-free survival (PFS) ([2]; 450 mg BID): 7.83 weeks; subjects who developed an event (progression of disease or death) ([2]; 450 mg BID): 84.75%; Median duration of response (DOR) ([2]; 450 mg BID, 7 responders): 15.66 weeks; BORR ([2]; 450 mg BID, 59 evaluable subjects): 11.86%; Median DOR ([2]; 2 BRAF-mutant melanoma responders): 22.49 weeks; B/P (nonclinical), percentage of brain exposure relative to plasma ([3]; 93% mice, 138% rats): 93-138%; Kp ([3]; oral, 30 mg/kg): 0.8 to 1.2; Kp ([3]; mice and rats, oral administration): ~1
